Assay results from patent US20240382469A1, “COMBINATION THERAPY WITH DEUTERATED IMIDAZOQUINOLINES” (BIRDIE BIOPHARMACEUTICALS, INC., priority 2021, published 2024).

How the values were obtained:
TC-1 cells = assay: In vivo efficacy of compound 1 in combination with various therapeutic antibodies in TC-1 animal model; set-up: species or system C57BL/6 mice; conditions: days 9, 12, 15, 18 and 21, p<0.05, FIG. 3
Experimental: Female C57BL/6 mice (5 to 6-week-old) were randomly divided into 7 groups (n=5 per group), including (1) placebo (PBS, i.p.); (2) compound 1 (1.6 μg; s.c.); (3) compound 1 and anti-CD137 antibody; (4) compound 1 and anti-TIGIT antibody; (5) compound 1 and anti-OX40 antibody; (6) compound 1 and anti-LAG3 antibody; (7) compound 1 and anti-CD47 antibody.
To challenge, each mouse was subcutaneously injected with 1×10^6 TC-1 cells in a volume of 0.1 mL into the left flank at day 0. Then, mice in each group received totally five doses of placebo, compound 1 or indicated combination therapy on days 9, 12, 15, 18 and 21. In each dose of combination therapy, 1.6 μg of compound 1 was given subcutaneously, and 200 μg of therapeutic antibody (anti-CD137, anti-TIGIT, anti-OX40, anti-LAG3 or anti-CD47 antibody) was given intraperitoneally. All mice were sacrificed on day 34. By using the same method as described in example 1, the tumor size was determined and the significance of all comparisons was calculated.

CT26 tumor cells [1] = assay: In vivo efficacy of compound 1 or proto-resiquimod in combination with an anti-PD-1 antibody in CT26 animal model; set-up: species or system BALB/c mice
Experimental: Female BALB/c mice (5 to 6-week-old) were randomly divided into 4 groups (n=5 per group), including (1) placebo (PBS; i.p.); (2) anti-PD-1 antibody (50 μg; i.p.); (3) compound 1 (1.6 μg; s.c.) and anti-PD-1 antibody (50 μg; i.p.); (4) proto-resiquimod (1.6 μg; s.c.) and anti-PD-1 antibody (50 μg; i.p.).
To challenge mice, CT26 tumor cells (1×10^6 in 0.1 mL) were injected subcutaneously on day 0. Then, mice in each group received totally three doses of placebo, anti-PD-1 antibody or indicated combination therapy. In placebo group, mice received PBS (s.c.) on days 7, 14 and 21. In anti-PD-1 antibody alone group, mice received 50 μg of anti-PD-1 antibody (i.p.) on days 7, 10 and 14. In each combination therapy group, mice received 1.6 μg of TLR7/8 agonist (compound 1 or proto-resiquimod) (s.c.) on days 7, 14 and 21, and 50 μg of anti-PD-1 antibody (i.p.) on days 7, 10 and 14. All mice were sacrificed on day 28. By using the same method as described in example 1, the tumor size was determined and the significance of all comparisons was calculated.

CT26 tumor cells [2] = assay: In vivo efficacy of deuterated compounds in combination with an anti-PD-1 antibody in CT26 animal model; set-up: species or system BALB/c mice; conditions: for tumor size as compared to placebo group and to anti-PD-1 antibody alone group / tumor size over the experimental period: 1.6 μg compound s.c. in combination with 50 μg anti-PD-1 antibody i.p., FIG. 1; for tumor size as compared to placebo group and to anti-PD-1 antibody alone group: days 6, 9 and 12, p<0.05 for both comparisons; for tumor size over the experimental period: followed to day 28
Experimental: Female BALB/c mice (5 to 6-week-old) were randomly divided into 5 groups (n=5 per group), including (1) placebo (PBS; s.c.); (2) anti-PD-1 antibody (50 μg; i.p.); (3) compound 1 and anti-PD-1 antibody; (4) compound 2 and anti-PD-1 antibody; (5) compound 3 and anti-PD-1 antibody.
To challenge mice, CT26 tumor cells (1×10^6 in 0.1 mL) were injected subcutaneously on day 0. Then, mice in each group received totally three doses of placebo, anti-PD-1 antibody or indicated combination therapy on days 6, 9 and 12. In each dose of combination therapy, 1.6 μg of TLR7/8 agonist (compound 1, 2 or 3) was given subcutaneously, and 50 μg of anti-PD-1 antibody (mAb) was given intraperitoneally. All mice were sacrificed on day 28. The tumor size was determined twice a week by multiplication of caliper measurements based on the modified ellipsoidal formula: Tumor volume=½ (length × width^2). Mice with tumor length over 2 cm were considered dead and mice without measurable or palpable tumor masses were considered tumor-free. The significance of all comparisons was calculated by using t-test, and results considered significant when p<0.05.

Compound	tumor size as compared to placebo group or compound 1 alone group (TC-1 cells; 1.6 μg compound 1 s.c. in combination with 200 μg anti-CD47 antibody i.p.)	tumor size as compared to placebo group or compound 1 alone group (TC-1 cells; 1.6 μg compound 1 s.c. in combination with 200 μg anti-CD137 antibody i.p.)	tumor size as compared to placebo group or compound 1 alone group (TC-1 cells; 1.6 μg compound 1 s.c. in combination with 200 μg anti-LAG3 antibody i.p.)	tumor size as compared to placebo group or compound 1 alone group (TC-1 cells; 1.6 μg compound 1 s.c. in combination with 200 μg anti-OX40 antibody i.p.)	tumor size as compared to placebo group or compound 1 alone group (TC-1 cells; 1.6 μg compound 1 s.c. in combination with 200 μg anti-TIGIT antibody i.p.)	tumor size (CT26 tumor cells [1]; 1.6 μg TLR7/8 agonist s.c. days 7, 14 and 21 in combination with 50 μg anti-PD-1 antibody i.p. days 7, 10 and 14, FIG. 2)	tumor inhibitory effect compared with proto-resiquimod (CT26 tumor cells [1]; in combination with anti-PD-1 antibody, p<0.05)	tumor size as compared to placebo group and to anti-PD-1 antibody alone group (CT26 tumor cells [2])	tumor size over the experimental period (CT26 tumor cells [2])	tumor inhibitory effect compared with the other deuterated compounds (CT26 tumor cells [2]; in combination with anti-PD-1 antibody, p<0.05 for each comparison)
[2H]C([2H])([2H])C([2H])([2H])OCc1nc2c(N)nc3ccccc3c2n1CC(C)(C)O [Compound 1]	significantly suppress tumor size	significantly suppress tumor size	significantly suppress tumor size	significantly suppress tumor size	significantly suppress tumor size	potently inhibit tumor size	more significant tumor inhibitory effect than proto-resiquimod	significantly reduce tumor size	almost completely suppressed tumor size	outstanding and significant tumor inhibitory effect than compounds 2 or 3
[2H]C([2H])([2H])C(O)(C([2H])([2H])[2H])C([2H])([2H])n1c(COCC)nc2c(N)nc3ccccc3c21 [Compound 2]	–	–	–	–	–	–	–	significantly reduce tumor size	initially well controlled, however, slightly grew at the last week	–
[2H]C([2H])([2H])C(O)(Cn1c(COCC)nc2c(N)nc3ccccc3c21)C([2H])([2H])[2H] [Compound 3]	–	–	–	–	–	–	–	significantly reduce tumor size	initially well controlled, however, slightly grew at the last week	–
